The source of these data is patent publication US7700646B2, “Compounds for use in the treatment of infection” (The University of London, School of Pharmacy, priority 2004, dated 2010).

Several values for one entry are separate records, joined by “and”; a condition that tells them apart may be missing. Identical values can stand only once.

Data set [1] concerns EMRSA-15. Put plainly: MIC of oxacillin in absence or presence of fixed concentration of compound. The format is cell-based, Staphylococcus aureus. On the procedure: (§1) Bacterial strains: S. aureus BB568 (COL-type strain that carries mecA and pT181) was provided by Professor B. Berger-Bächi. EMRSA-15 and EMRSA-16 were clinical isolates from the Royal Free Hospital, London.
(§2) Antibacterial susceptibility testing: Minimum Inhibitory Concentration (MIC) was determined by both broth and agar dilution techniques. Broth MIC testing was performed in 96-well microtitre trays with an inoculum of about 10^4 cfu in 100 μL of Mueller-Hinton broth (MHB) (Oxoid, Basingstoke, United Kingdom) supplemented with 2% NaCl. MIC determinations by agar dilution were carried out using Mueller-Hinton agar (Oxoid) with an inoculum of about 10^4 organisms per spot. For both methods, MIC values were obtained after incubation at 35° C. for 24 h. S. aureus ATCC29213 was used as the standard.
(§3) With the amide derivatives (21 and 24) in hand, their efficacy as modulators for β-lactam resistance in S. aureus was evaluated by determining their capcity to reduce the minimum inhibitory concentration (MIC) of oxacillin against MRSA strains BB 568, EMRSA-15 and EMRSA-16 as described in example 2.
(§4) With the B-ring modified analogues 47 and 48 in hand, their efficacy as modulators for β-lactam resistance in S. aureus was evaluated by determining their capacity to reduce the minimum inhibitory concentration (MIC) of oxacillin against MRSA strains BB 568, EMSRA-15 and EMSRA-16 (Table 5)

In data set [2] the test system is S. aureus BB568. Described as above. The format is cell-based, Staphylococcus aureus. The settings on record: BB 568. The protocol: as §1, §2, §3, §4
Data set [3] has as its system EMRSA-16. Described as above. The format is cell-based, Staphylococcus aureus. On the procedure: as §1, §2, §3, §4
Data set [4] concerns EMRSA-15. Put plainly: MIC of compound alone, broth dilution. The format is cell-based, Staphylococcus aureus. The settings on record: MHB + 2% NaCl, 35° C., 24 h. The protocol:
as §1, §2
(Dilution methods test growth across graded concentrations, often in twofold steps.)

The test system of data set [5] is S. aureus BB568. Put plainly: MIC of compound alone, broth dilution. The format is cell-based, Staphylococcus aureus. The settings on record: 35° C., 24 h. On the procedure: as §1, §2
The subject of data set [6] is EMRSA-16. Put plainly: MIC of compound alone, broth dilution. The format is cell-based, Staphylococcus aureus. The settings on record: MHB + 2% NaCl, 35° C., 24 h. The protocol:
as §1, §2

Data set [7] has as its system MRSA strains BB 568, EMRSA-15 and EMRSA-16. Put plainly: Intrinsic antibacterial activity, summary over three strains. The format is cell-based, Staphylococcus aureus. The settings on record: compound alone, in words. On the procedure:
as §1, §2
(§5) Sub-inhibitory concentrations (6.25, 12.5 and 25 mg/L) of both compounds were effective in reducing the MIC of all three strains examined.

Data set [8] has the same test system. Put plainly: Modulation of oxacillin resistance, summary over three strains. The format is cell-based, Staphylococcus aureus. The settings on record: for potency as oxacillin sensitiser compared with ECg: 6.25 mg/L of catechin gallate. On the procedure: as §1, §2, §5
At a concentration of 25 mg/L, ECg and the two analogues (47 and 48) fully sensitised each of the three MRSA strains to oxacillin, reducing the MICs to less than 0.5 mg/L, a figure well below the clinically-relevant breakpoint for β-lactam antbiotics.

The subject of data set [9] is EMRSA-16 cells. Put plainly: Binding of catechins to staphylococcal cells (HPLC of unbound catechin). The settings on record: compound added alone. More on the design: species or system Staphylococcus aureus. The text has this: The method is based on Hashimoto, T. et al 1999.
For data set [10], the system named is 40 MRSA strains. The settings on record: all 40 MRSA strains; cited from earlier work.
The test system of data set [11] is MRSA strain BB568. The settings on record: cited from earlier work; for MIC of oxacillin in combination with compound: fixed sub-inhibitory concentration of compound.
The test system of data set [12] is porcine liver esterase. Put plainly: Esterase sensitivity. The format is in vitro ADME. The settings on record: porcine liver esterase (Sigma), 10 min at 37° C. On the procedure:
The product of example 1 was tested for in esterase sensitivity as compared to ECG using commercially available porcine liver esterase (Sigma).

[13] abbreviates: in presence of 25 mg/L compound.
[14] abbreviates: Staphylococcus aureus, read-out: MIC.
Setting [15] is: Staphylococcus aureus, BB568, BB 568, MHB + 2% NaCl, read-out: MIC.
[16] abbreviates: in presence of 6.25 mg/L compound.
[17] abbreviates: in presence of 12.5 mg/L compound.
Where [18] appears, read: in presence of 12.5 mg/L compound, listed as ECG.
Setting [19] is: Staphylococcus aureus, absence of compound, 35° C., 24 h.

Consider `O=C(N[C@H]1Cc2c(O)cc(O)cc2O[C@@H]1c1ccc(O)c(O)c1)c1cc(O)c(O)c(O)c1` [Compound 24], for which the “Oxacillin MIC” value in data set [1] (setting [13]) is “significant degree of sensitisation and 2/4”; in data set [2] (setting [13]), 64/64; in data set [3] (setting [13]), 256/512. Besides, the MIC – broadly, the least concentration at which growth counts as inhibited – in [4] (setting [14]) was found to be 256 µg/mL; in data set [5] (setting [15]), 256 µg/mL; in data set [6] (setting [14]), 128 µg/mL. Besides, the intrinsic antibacterial activity entry in [7] is listed as “extremely weak intrinsic antibacterial activity”.
`O=C(O[C@@H]1Cc2c(O)cc(O)cc2O[C@@H]1c1cccc(O)c1)c1cc(O)c(O)c(O)c1` [Compound 47, (−)-3-hydroxy B ring modified (−)-ECg]: the “Oxacillin MIC” value is 2 mg/L in data set [1] (setting [16]); “≦0.5 mg/L” in data set [1] (setting [17]); “≦0.5 mg/L” in [1] (setting [13]); 16 mg/L in data set [2] (setting [16]); 2 mg/L in data set [2] (setting [17]); “≦0.5 mg/L” in [2] (setting [13]). Moreover, the “Oxacillin MIC” value in data set [3] (setting [16]) is given as 32 mg/L; in data set [3] (setting [17]), 1 mg/L; in data set [3] (setting [13]), “≦0.5 mg/L”. Further, the minimum inhibitory concentration (MIC) in data set [4] is over 128 µg/mL; in data set [5] (BB 568, MHB + 2% NaCl) it was over 128 µg/mL; in [6], 128 µg/mL. The intrinsic antibacterial activity entry in data set [7] is reported as “little or no intrinsic antibacterial activity”. Further, in data set [8], the “potency as oxacillin sensitiser compared with ECg” value was “less potent than the natural compound”.
Regarding `O=C(O[C@@H]1Cc2c(O)cc(O)cc2O[C@@H]1c1cc(O)cc(O)c1)c1cc(O)c(O)c(O)c1` [Compound 48, (−)-3,5-dihydroxy B ring modified (−)-ECg], the “Oxacillin MIC” value in [1] (setting [16]) was 2 mg/L; in data set [1] (setting [17]), “≦0.5 mg/L”; in data set [1] (setting [13]), “≦0.5 mg/L”; in data set [2] (setting [16]), 16 mg/L; in data set [2] (setting [17]), 1 mg/L; in data set [2] (setting [13]) it was “≦0.5 mg/L”. The “Oxacillin MIC” value is on record as 64 mg/L in data set [3] (setting [16]), “≦0.5 mg/L” in [3] (setting [17]) and “≦0.5 mg/L” in data set [3] (setting [13]). The MIC in data set [4] was 64 µg/mL; in data set [5] (BB 568, MHB + 2% NaCl) it was 128 µg/mL; in data set [6] it was 32 µg/mL. In data set [7], the intrinsic antibacterial activity entry is reported as “weak to moderate anti-staphylococcal activity”. The “potency as oxacillin sensitiser compared with ECg” value in [8] is “less potent than the natural compound”.
On to `O=C(O[C@@H]1Cc2c(O)cc(O)cc2O[C@@H]1c1ccc(O)c(O)c1)c1cc(O)c(O)c(O)c1` [ECg, (−)-epicatechin gallate, reference compound], for which the “Oxacillin MIC” value in [1] (setting [16]) was “≦0.5 mg/L”; in [1] (setting [17]), “≦0.5 mg/L”; in data set [1] (setting [13]) it was “≦0.5 mg/L”; in data set [2] (setting [16]), 1 mg/L; in [2] (setting [17]), “≦0.5 mg/L”; in data set [2] (setting [18]), 1 mg/L. The “Oxacillin MIC” value in data set [2] (setting [13]) was “≦0.5 mg/L”; in data set [3] (setting [16]), “≦0.5 mg/L”; in data set [3] (setting [17]), “≦0.5 mg/L”; in data set [3] (setting [18]) it was 1 mg/L; in [3] (setting [13]) it was “≦0.5 mg/L”. Further, the “Binding (%)” value in data set [9] was determined as 22%. In data set [10], the “reduction of β-lactam MIC” value is reported as “reduced the MIC values to the susceptibility breakpoint or below”. The “MIC of oxacillin in combination with compound” value (“MIC of oxacillin in combination” below) in data set [11] was 1 µg/mL. Also, the hydrolysis by esterase result in data set [12] is “totally hydrolysed”.
`Oc1cc(O)c2c(c1)O[C@H](c1cc(O)c(O)c(O)c1)[C@H](O)C2` [EGC, epigallocatechin]: the “MIC of oxacillin in combination” value in data set [11] is “inactive”.
Turning to `O=C(O[C@@H]1Cc2c(O)cc(O)cc2O[C@@H]1c1cc(O)c(O)c(O)c1)c1cc(O)c(O)c(O)c1` [EGCg, epigallocatechin gallate], the “Binding (%)” value in data set [9] is 16.2%. In addition, the “MIC of oxacillin in combination” value in [11] is 8 µg/mL.
For the molecule `O=C(N[C@@H]1Cc2c(O)cc(O)cc2O[C@@H]1c1ccc(O)c(O)c1)c1cc(O)c(O)c(O)c1` [Ex 1], the “Oxacillin MIC” value in data set [1] (setting [17]) was 1/1; in [2] (setting [17]) it was 32/64; in data set [2] (setting [13]), 4/8; in [3] (setting [17]) it was 32/64; in [3] (setting [13]), 1/1. Moreover, the MIC in data set [4] was 128/256; in data set [4] (setting [14]), 256 µg/mL; in data set [5] (BB 568, MHB + 2% NaCl) it was 128/256; in data set [5] (setting [15]) it was 256 µg/mL; in [6], 128/128; in data set [6] (setting [14]), 128 µg/mL. For the same molecule, the intrinsic antibacterial activity entry in data set [7] is given as “extremely weak intrinsic antibacterial activity”. For the same molecule, the “Oxacillin MIC, each of the three MRSA strains” value in data set [8] (setting [13]) is recorded as “able to reduce the resistance to oxacillin of all three strains”. Besides, in [12], the hydrolysis by esterase result is recorded as “not affected”.
Regarding `Cc1onc(-c2ccccc2)c1C(=O)N[C@@H]1C(=O)N2[C@@H]1SC(C)(C)[C@@H]2C(=O)O` [Oxacillin, oxacillin, reference compound], the MIC in data set [1] (setting [19]) worked out at 32 µg/mL; in data set [2] (Staphylococcus aureus, BB568, absence of compound, 35° C., 24 h) it was 256 µg/mL; in [3] (setting [19]), 512 µg/mL. For the same molecule, the “Oxacillin MIC” value in data set [2] (absence of compound, 35° C., 24 h, listed as Oxacillian) is 256 mg/L. In addition, the MIC for oxacillin in data set [11] (oxacillin alone) was 256 µg/mL.
